Data from PMC2775898 (The EMBO Journal, 2009).
Where a SMILES comes first, the peptide text is derived from it. The star is where a group is joined. Biotin = O=C1N[C@H]2[C@H](CS[C@H]2CCCCC(=O)*)N1

Biological target: T1, Tiam2 PHCCEx domain (Mus musculus, UniProt Q6ZPF3)
T1 sequence (Q6ZPF3 500-757): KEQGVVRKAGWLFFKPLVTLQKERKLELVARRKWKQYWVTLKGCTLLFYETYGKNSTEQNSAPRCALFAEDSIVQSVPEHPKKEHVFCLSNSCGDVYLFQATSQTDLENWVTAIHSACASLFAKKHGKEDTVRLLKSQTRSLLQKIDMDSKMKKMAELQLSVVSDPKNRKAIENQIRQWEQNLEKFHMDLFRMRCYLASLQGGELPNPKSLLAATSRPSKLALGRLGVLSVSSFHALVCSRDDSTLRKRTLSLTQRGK
Assay: Equilibrium SPR binding of biotinylated peptides to the Tiam2 PHCCEx domain
Conditions: N-terminal biotinylated peptide immobilized

| Binding to the Tiam2 PHCCEx domain (in words) | Compound |
| --- | --- |
| weaker binding | CC[C@H](C)[C@H](NC(=O)CNC(=O)[C@H](CC(C)C)NC(=O)[C@H](CCC(=O)O)NC(=O)CNC(=O)[C@@H]1CCCN1C(=O)[C@H](CCC(=O)O)NC(=O)[C@H](C)NC(=O)[C@H](CCC(=O)O)NC(=O)[C@H](CCCNC(=N)N)NC(=O)CCCC[C@@H]1SC[C@@H]2NC(=O)N[C@@H]21)C(=O)N[C@@H](C)C(=O)N[C@@H](CC(C)C)C(=O)N[C@@H](CCCNC(=N)N)C(=O)NCC(=O)NCC(=O)NCC(=O)N[C@H](C(=O)N[C@@H](C)C(=O)N[C@@H](CC(=O)O)C(=O)O)[C@@H](C)O [ephrin B3 286–303] (Biotin-REAEPGELGIALRGGGTAD-OH; C-terminus assumed) |
| in the micromolar range | CC[C@H](C)[C@H](NC(=O)[C@@H](NC(=O)[C@H](CC(=O)O)NC(=O)[C@H](CO)NC(=O)[C@@H]1CCCN1C(=O)[C@H](CCC(=O)O)NC(=O)[C@H](CO)NC(=O)CNC(=O)[C@H](CC(N)=O)NC(=O)CCCC[C@@H]1SC[C@@H]2NC(=O)N[C@@H]21)C(C)C)C(=O)N[C@H](C(=O)N1CCC[C@H]1C(=O)N[C@@H](CC(C)C)C(=O)N[C@@H](CCCNC(=N)N)C(=O)N[C@H](C(=O)N[C@@H](C)C(=O)N[C@@H](CC(=O)O)C(=O)N[C@@H](CO)C(=O)N[C@H](C(=O)N[C@@H](Cc1ccccc1)C(=O)O)C(C)C)[C@@H](C)O)[C@@H](C)CC [ephrin B2 285–302] (Biotin-NGSEPSDVIIPLRTADSVF-OH; C-terminus assumed) |
| in the micromolar range | CC[C@H](C)[C@H](NC(=O)[C@H](CC(=O)O)NC(=O)[C@H](CO)NC(=O)[C@@H]1CCCN1C(=O)[C@H](CCC(=O)O)NC(=O)[C@@H](NC(=O)CNC(=O)[C@H](C)NC(=O)CCCC[C@@H]1SC[C@@H]2NC(=O)N[C@@H]21)[C@@H](C)O)C(=O)N[C@H](C(=O)N[C@H](C(=O)N1CCC[C@H]1C(=O)N[C@@H](CC(C)C)C(=O)N[C@@H](CCCNC(=N)N)C(=O)N[C@H](C(=O)N[C@H](C(=O)N[C@@H](CCC(=O)O)C(=O)N[C@@H](CC(N)=O)C(=O)N[C@@H](CC(N)=O)C(=O)N[C@@H](Cc1ccc(O)cc1)C(=O)O)[C@@H](C)O)[C@@H](C)O)[C@@H](C)CC)[C@@H](C)CC [ephrin B1 294–312] (Biotin-AGTEPSDIIIPLRTTENNY-OH; C-terminus assumed) |
